Measured values reported in patent US8952024B2, “Herbicidal pyrimidone derivatives” (E I du Pont de Nemours and Company, priority 2009, dated 2015).

Key:
Assay type in all cases: in vivo
[1] = tested on: ducksalad (Heteranthera limosa); assay: Test B flooded paddy test
Outline: (§1)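 Rice, umbrella sedge, ducksalad and barnyardgrass were grown to the 2-leaf stage, flooded to 3 cm, and compound was applied directly to the paddy water, with that depth kept throughout. After 13 to 15 days in the greenhouse, plants were visually rated against controls on a 0 (no effect) to 100 (complete control) scale.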

rice (Oryza sativa) = assay: Test B flooded paddy test
Outline: as §1

[2] = tested on: barnyardgrass (Echinochloa crus-galli); assay: Test B flooded paddy test
Outline: as §1

[3] = tested on: umbrella sedge (Cyperus difformis); assay: Test B flooded paddy test
Outline: as §1

soybean (Glycine max) = assay: Test B pre-/postemergence plant response
Outline: (§2)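 Plants treated either at seeding (loam/sand soil) or postemergence at 2 to 18 cm height, using a surfactant-containing non-phytotoxic solvent formulation. Evaluation was visual after 13 to 15 days, 0 to 100 scale relative to controls.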

[4] = tested on: johnsongrass (Sorghum halepense); assay: Test B pre-/postemergence plant response
Outline: as §2

[5] = tested on: giant foxtail (Setaria faberii); assay: Test B pre-/postemergence plant response
Outline: as §2

corn (Zea mays) = assay: Test B pre-/postemergence plant response
Outline: as §2

[6] = Flood, 31 g ai/ha, scale 0 to 100 (0 no effect, 100 complete control)
[7] = 62 g ai/ha, postemergence, 0 is no effect, 100 is complete control, 13 to 15 days

O=C1CCCC(O)=C1C(=O)c1cnc(-c2ccccc2)n(C2CCCCC2)c1=O [Compound 128, 3-cyclohexyl-5-[(2-hydroxy-6-oxo-1-cyclohexen-1-yl)carbonyl]-2-phenyl-4(3H)-pyrimidinone]
Ducksalad plant response rating [1, 6]: 90
pest or weed control at 250 g/ha ([1]; Heteranthera limosa, 360 h, 250 g ai/ha, flooded paddy test, visual rating on 0 to 100 scale (0 no effect, 100 complete control) after 13 to 15 days, read-out: Plant response rating, Flood, Ducksalad): 100%
pest or weed control at 62 g/ha ([1]; Heteranthera limosa, 360 h, Flood (flooded paddy test), 62 g ai/ha, scale of 0 to 100 where 0 is no effect and 100 is complete control, 13 to 15 days, read-out: Plant response rating, Ducksalad): 95%
pest or weed control at 125 g/ha ([1]; Heteranthera limosa, 360 h, Flood (flooded paddy test), 125 g ai/ha, scale 0 to 100, 0 is no effect, 100 is complete control, 13 to 15 days, read-out: Plant response rating, Ducksalad): 95%
Rice plant response rating (rice (Oryza sativa); [6]): 0
plant injury at 250 g/ha (rice (Oryza sativa); Oryza sativa, 250 g ai/ha, flooded paddy test, visual rating on 0 to 100 scale (0 no effect, 100 complete control) after 13 to 15 days, read-out: Plant response rating, Flood, Rice): 35%
plant injury at 62 g/ha (rice (Oryza sativa); Oryza sativa, Flood (flooded paddy test), 62 g ai/ha, scale of 0 to 100 where 0 is no effect and 100 is complete control, 13 to 15 days, read-out: Plant response rating, Rice): 0%
plant injury at 125 g/ha (rice (Oryza sativa); Oryza sativa, Flood (flooded paddy test), 125 g ai/ha, scale 0 to 100, 0 is no effect, 100 is complete control, 13 to 15 days, read-out: Plant response rating, Rice): 10%
pest or weed control at 250 g/ha ([2]; Echinochloa crus-galli, 360 h, 250 g ai/ha, flooded paddy test, visual rating on 0 to 100 scale (0 no effect, 100 complete control) after 13 to 15 days, read-out: Plant response rating, Flood, Barnyardgrass): 40%
pest or weed control at 62 g/ha ([2]; Echinochloa crus-galli, 360 h, Flood (flooded paddy test), 62 g ai/ha, scale of 0 to 100 where 0 is no effect and 100 is complete control, 13 to 15 days, read-out: Plant response rating, Barnyardgrass): 10%
pest or weed control at 125 g/ha ([2]; Echinochloa crus-galli, 360 h, Flood (flooded paddy test), 125 g ai/ha, scale 0 to 100, 0 is no effect, 100 is complete control, 13 to 15 days, read-out: Plant response rating, Barnyardgrass): 15%
Barnyardgrass plant response rating [2, 6]: 0
pest or weed control at 250 g/ha ([3]; Cyperus difformis, 360 h, 250 g ai/ha, flooded paddy test, visual rating on 0 to 100 scale (0 no effect, 100 complete control) after 13 to 15 days, read-out: Plant response rating, Flood, Sedge, Umbrella): 75%
pest or weed control at 62 g/ha ([3]; Cyperus difformis, 360 h, Flood (flooded paddy test), 62 g ai/ha, scale of 0 to 100 where 0 is no effect and 100 is complete control, 13 to 15 days, read-out: Plant response rating, Sedge, Umbrella): 30%
pest or weed control at 125 g/ha ([3]; Cyperus difformis, 360 h, Flood (flooded paddy test), 125 g ai/ha, scale 0 to 100, 0 is no effect, 100 is complete control, 13 to 15 days, read-out: Plant response rating, Sedge, Umbrella): 60%
Sedge, Umbrella plant response rating [3, 6]: 0
Soybean plant response rating (0 to 100 scale) (soybean (Glycine max); [7]): 98
plant injury at 31 g/ha (soybean (Glycine max); Glycine max, post-emergence, Postemergence, 31 g ai/ha, 0 to 100 scale (0 no effect, 100 complete control), read-out: Plant response rating, Soybean): 98%
plant injury at 125 g/ha (soybean (Glycine max); Glycine max, post-emergence, Postemergence, 125 g ai/ha, scale 0 to 100 (0 no effect, 100 complete control), read-out: Plant response rating, Soybean): 98%
plant injury at 250 g/ha (soybean (Glycine max); Glycine max, post-emergence, Postemergence, 250 g ai/ha, scale 0 to 100 (0 no effect, 100 complete control), 13 to 15 days, read-out: Plant response rating, Soybean): 98%
Johnsongrass plant response rating (0 to 100 scale) [4, 7]: 70
pest or weed control at 31 g/ha ([4]; Sorghum halepense, post-emergence, Postemergence, 31 g ai/ha, 0 to 100 scale (0 no effect, 100 complete control), read-out: Plant response rating, Johnsongrass): 70%
pest or weed control at 125 g/ha ([4]; Sorghum halepense, post-emergence, Postemergence, 125 g ai/ha, scale 0 to 100 (0 no effect, 100 complete control), read-out: Plant response rating, Johnsongrass): 85%
pest or weed control at 250 g/ha ([4]; Sorghum halepense, post-emergence, Postemergence, 250 g ai/ha, scale 0 to 100 (0 no effect, 100 complete control), 13 to 15 days, read-out: Plant response rating, Johnsongrass): 85%
Foxtail, Giant plant response rating (0 to 100 scale) [5, 7]: 95
pest or weed control at 31 g/ha ([5]; Setaria faberi, post-emergence, Postemergence, 31 g ai/ha, 0 to 100 scale (0 no effect, 100 complete control), read-out: Plant response rating, Foxtail, Giant): 95%
pest or weed control at 125 g/ha ([5]; Setaria faberi, post-emergence, Postemergence, 125 g ai/ha, scale 0 to 100 (0 no effect, 100 complete control), read-out: Plant response rating, Foxtail, Giant): 98%
pest or weed control at 250 g/ha ([5]; Setaria faberi, post-emergence, Postemergence, 250 g ai/ha, scale 0 to 100 (0 no effect, 100 complete control), 13 to 15 days, read-out: Plant response rating, Foxtail, Giant): 98%
Corn plant response rating (0 to 100 scale) (corn (Zea mays); [7]): 50
Corn plant response rating (crop injury, 0 = no effect, 100 = complete kill) at 31 g/ha (corn (Zea mays); Zea mays, post-emergence, Postemergence, 31 g ai/ha, 0 to 100 scale (0 no effect, 100 complete control)): 40%
Corn plant response rating (crop injury, 0 = no effect, 100 = complete kill) at 125 g/ha (corn (Zea mays); Zea mays, post-emergence, Postemergence, 125 g ai/ha, scale 0 to 100 (0 no effect, 100 complete control)): 60%
Corn plant response rating (crop injury, 0 = no effect, 100 = complete kill) at 250 g/ha (corn (Zea mays); Zea mays, post-emergence, Postemergence, 250 g ai/ha, scale 0 to 100 (0 no effect, 100 complete control), 13 to 15 days): 60%
